In paper PMC5344956 (Cancer Chemotherapy and Pharmacology, 2017):

Assays:
[1] = Metabolite profiling of feces (HPLC-radiochromatography); type: in vivo, human; details: 0–144 h pool
Method: One-gram samples of the fecal homogenates were transferred to 50-mL polypropylene tubes, extracted with 4 mL of methanol, and centrifuged (4500g). The resulting residues were extracted three more times (once with 2 mL of methanol and twice with 1 mL of methanol containing 1% formic acid) and centrifuged. All supernatants were combined and evaporated under nitrogen, and the residue was reconstituted with 0.5 mL of methanol, vortexed, sonicated, and centrifuged. A 0.010-mL aliquot of the supernatant was removed for determination of radioactivity, and the remainder of the supernatant was transferred to an HPLC vial and stored at −80 °C.
(§1) A Finnigan Surveyor HPLC system (Thermo Fisher Scientific Inc., San Jose, CA, USA), consisting of an LC pump plus an autosampler and a UV–Vis plus detector, was used mostly for profiling (except the post-24-h plasma samples, which were analyzed using a Dionex HPLC system). A Phenomenex® Gemini® C18, 5-μm, 3.0 × 100-mm column (Phenomenex Inc., Torrance, CA, USA) was used along with a C-12 guard column (4 × 2 mm). LC conditions were as follows: solvent A was 10 mM ammonium bicarbonate in water (pH 10.0) and solvent B was 100% methanol and the flow rate was 0.8 mL/min. The following gradient was employed (B%): 0–5 min (20%), 32 min (42%), 33 min (60%), 55 min (70%), 56–60 min (95%), and 62–70 min (20%).
(§2) Reconstituted solvent extracts (0.050–0.10 mL) of plasma, urine, or feces were injected onto the HPLC column. The post-column eluate was split after UV detection into two streams (0.64 and 0.16 mL/min). The 0.64-mL stream was diverted to a fraction collector (Gilson FX 204; Gilson Medical Electronics, Middleton, WI, USA) to be collected in 96-well plates at 0.16 min/well (ScintiPlates; PerkinElmer Life Sciences, Shelton, CT, USA), and the 0.16-mL stream was directed to the mass spectrometer. The solvent in the 96-well plates was removed at 40 °C using a Genevac evaporator (Genevac, Inc., Stone Ridge, NY, USA).
(§3) The radioactivity counts per minute (CPM) in each well was determined using a MicroBeta scintillation counter (PerkinElmer Life and Analytical Sciences). The resulting CPM vs. time data were processed using Excel (Microsoft Corporation, Seattle, WA, USA). The CPM in each well was background-subtracted (using the average CPM values of the blank region of the HPLC run). Radiochromatographic profiles were obtained by plotting the resulting net CPM values against time after injection. Radioactive peaks in the chromatographic profiles were identified, and the radioactivity in each peak was summed and reported as a percentage of TRA in the HPLC run.

[2] = Metabolite characterization by LC/MS/MS in human plasma, urine, and feces; details: human plasma, urine, feces; LC/MS/MS
Method: The remaining eluate stream of 0.16 mL/min from the HPLC runs was diverted to the inlet of the mass spectrometer. The samples were analyzed using a heated electrospray ionization probe. Full-scan positive ion MS data were collected using Finnigan Exactive (MS^1) or Q-Exactive (MS^1 and MS^2) mass spectrometers (Thermo Fisher Scientific Inc.) Exact conditions are described in the Online Resource 3.
Finnigan Exactive or Q-Exactive mass spectrometers (Thermo Fisher Scientific Inc., San Jose, CA) were used to collect full scan MS^1 and MS^2 data.

[3] = Metabolite profiling of plasma (HPLC-radiochromatography); type: in vivo, human; details: % of TRA
Method: For each subject, a 0–24 h pooled plasma sample was prepared according to the scheme outlined in the literature. In addition, several pooled plasma samples across all subjects were prepared at these time points: 5, 10, 12, […], and 48 h, and every 24 h thereafter until 240 h.
All pooled 0–24, 5, 10, 12, and 24 h plasma samples were processed as follows. […] The samples were vortexed for 30 min and centrifuged at 4500g at 4 °C for 6 min. The supernatants were transferred into new polypropylene tubes and kept on ice. The resulting plasma protein pellets were extracted twice to ensure good recovery and the extracts were combined. The combined extracts were loaded onto Ostro sample preparation plates (Waters Corporation, Milford, MA, USA), dried, eluted with 0.2 mL of cold acetonitrile, and all eluates were collected and evaporated under nitrogen (TurboVap LV; Caliper Life Sciences, Hopkinton, MA, USA). The dry residues were reconstituted in 0.1 mL of methanol, and a 0.005-mL aliquot was removed for determination of radioactivity. The remainder of the supernatants were transferred to high-performance liquid chromatography (HPLC) vials and stored at −80 °C until analysis.
Pooled post-24-h plasma samples were extracted using a slightly modified procedure. […] Appropriate volumes of formic acid were added to achieve a final concentration of 1%. Then, the samples were warmed to 37 °C and loaded to preconditioned Oasis HLB cartridges (Waters Corporation, Milford, MA, USA). These columns were then washed with water, dried under vacuum, and eluted with methanol. The eluates were collected and evaporated under nitrogen. The dry residues were reconstituted in 0.1 mL of methanol, and a 0.005-mL aliquot was removed for determination of radioactivity. The remainder of the supernatants were transferred to HPLC vials and stored at −80 °C until analysis.
as §1, §2, §3

[4] = Plasma pharmacokinetics of TRA, ponatinib and metabolites after a single oral 45-mg [14C]ponatinib dose; details: for plasma level at 144 h postdose / time postdose at which C max / maximal levels in plasma were observed: human plasma; for time postdose at which C max / maximal levels in plasma were observed: single oral 45-mg dose, M23 by radiochromatography; for concentration at 144 h / AUC(0-inf) / AUC(0-t) / Cmax / Tmax / half-life: male, human, plasma, 45 mg; for concentration at 144 h: oral; for AUC(0-inf) / AUC(0-t) / Cmax / Tmax / half-life: po
Method: The subject release criterion was defined as follows: the combined urine and fecal radioactivity excretion for two consecutive days should fall below 1% of the dose administered.
Detailed procedures on sample collection, storage, and shipment are described in Online Resource 1. […] Fecal homogenates were prepared by adding water (four times the feces weight) and homogenizing.
TRA analysis was carried out at ABC Laboratories. The radioactivity in plasma (duplicate per time point) and urine samples (triplicate per time point) was quantitated by direct counting in a Beckman LS6000SC or LS6500 liquid scintillation counter (PerkinElmer Life and Analytical Sciences, Boston, MA, USA). Whole blood (duplicate per time point) and fecal homogenate (triplicate per time point) samples were oxidized, and the resultant ^14CO2 was trapped in Carbosorb (Calgon Carbon Corporation, Pittsburgh, PA, USA) in combination with Permafluor, followed by liquid scintillation counting to determine the radioactivity. Individual samples were counted for 5 min for whole blood and fecal matrices, and 10 min for plasma and urine matrices. Predose blood, plasma, urine, and feces samples served as respective control samples to determine and subtract the background radioactivity in the analysis.
M14 was quantitated using a different LC/MS/MS method (Online Resource 2). The pharmacokinetic analysis was carried out using WinNonlin® v6.4 (Pharsight Corp., Mountain View, CA, USA).
Aliquots of 30 µl of calibration standards, quality controls, and incurred plasma samples were transferred into a 96-well plate. Then 150 µl of ice-cold acetonitrile containing 50 ng/ml of AP30376 (d6-AP24600, internal standard) were added. The 96-well plate was vortexed for 10 min and then centrifuged at 4750 rpm for 20 min at 4°C. 100 µl aliquots of the supernatants were transferred into another 96-well plate and the samples were analyzed by liquid chromatography tandem mass spectrometry.

BCR–ABL [5] = target: T1, BCR–ABL (Homo sapiens, UniProt P00519+P11274); test: In vitro cellular activity screen against BCR–ABL (data not shown); type: cell-based
T1 sequence (P00519 229-512 limits assumed): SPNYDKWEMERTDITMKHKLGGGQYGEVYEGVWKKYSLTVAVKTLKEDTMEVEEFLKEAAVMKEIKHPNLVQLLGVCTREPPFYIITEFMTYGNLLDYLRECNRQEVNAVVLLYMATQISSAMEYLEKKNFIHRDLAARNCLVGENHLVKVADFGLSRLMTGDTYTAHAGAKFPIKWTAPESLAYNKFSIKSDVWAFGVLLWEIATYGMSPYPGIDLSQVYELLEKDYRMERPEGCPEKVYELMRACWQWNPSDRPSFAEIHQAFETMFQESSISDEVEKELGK

BCR–ABL [6] = test: In vitro kinase activity screen against BCR–ABL (data not shown); type: biochemical
[7] = Metabolite profiling of urine (HPLC-radiochromatography); type: in vivo, human; details: 0–72 h pool
Method: Predose and 0–72-h urine samples (grand pool of all six subjects) were prepared. Urine samples (5 mL) were centrifuged, the supernatant was transferred to a 15-mL polypropylene tube and placed on ice; the residues were extracted with 1 mL of methanol and the methanol extracts were added to the supernatants. The combined extracts were evaporated under nitrogen and reconstituted in 0.2 mL of methanol. A 0.010-mL aliquot of the reconstituted solution was removed for determination of radioactivity, and the remainder was transferred to HPLC vials and stored at −80 °C.
as §1, §2, §3

| Matrix (in which the metabolite was found) [2] | % Distribution in plasma ([3]; 0–24 h pooled plasma) | % Distribution in plasma ([3]; 5 h pooled plasma) | % Distribution in plasma ([3]; 10 h pooled plasma) | % Distribution in plasma ([3]; 12 h pooled plasma) | plasma level at 144 h postdose [4] | time postdose at which C max / maximal levels in plasma were observed [4] [h] | concentration at 144 h [4] [nM] | AUC(0-inf) [4] [µM·h] | AUC(0-t) [4] [µM·h] | Cmax [4] [nM] | Tmax [4] [h] | half-life [4] [h] | activity against BCR–ABL, cellular activity screen (BCR–ABL [5]) | activity against BCR–ABL, kinase screen (BCR–ABL [6]) | Structure (SMILES) | % Distribution in plasma ([3]; 36 h pooled plasma) | % Distribution in plasma ([3]; 48 h pooled plasma) | % Distribution in plasma ([3]; 72 h pooled plasma) | % Distribution in plasma ([3]; 96 h pooled plasma) | other results |
| --- | --- | --- | --- | --- | --- | --- | --- | --- | --- | --- | --- | --- | --- | --- | --- | --- | --- | --- | --- | --- |
| P, U, F | ~0.5–1.0% | ~0.5–1.0% | ~0.5–1.0% | ~0.5–1.0% | at or below detectable limits | 2 to 12 | < 0.2 | 1.8 | 1.61 | 107 | 2 | 56 | – | – | Cc1ccc(C(=O)Nc2ccc(CN3CCNCC3)c(C(F)(F)F)c2)cc1C#Cc1cnc2cccnn12 [M42, 3-(imidazo[1,2-b]pyridazin-3-ylethynyl)-4-methyl-N-(4-(piperazin-1-ylmethyl)-3-(trifluoromethyl)phenyl)benzamide] | – (“–” values less than 0.5% are not reported) | – (“–” values less than 0.5% are not reported) | – (“–” values less than 0.5% are not reported) | – (“–” values less than 0.5% are not reported) | % of total radioactive dose [1]: 8.3%; % Distribution in matrix ([1]; % of fecal TRA): 9.6% |
| P, U, F | ~0.5–1.0% | ~0.5% | ~0.5–1.0% | ~0.5–1.0% | – | – | – | – | – | – | – | – | – | – | Cc1ccc(C(=O)Nc2ccc(CN3CC[N+](C)([O-])CC3)c(C(F)(F)F)c2)cc1C#Cc1cnc2cccnn12 [M36, 4-(4-(3-(imidazo[1,2-b]pyridazin-3-ylethynyl)-4-methylbenzamido)-2-(trifluoromethyl)benzyl)-1-methylpiperazine 1-oxide] | – (“–” values less than 0.5% are not reported) | – (“–” values less than 0.5% are not reported) | – (“–” values less than 0.5% are not reported) | – (“–” values less than 0.5% are not reported) | – |
| P, U | 14.9% | 29.0% | 10.8% | 12.8% | at or below detectable limits | 2 to 12 | < 2.4 | 0.181 | 0.169 | 5 | 5 | 33.7 | inactive | inactive | Cc1ccc(C(=O)O)cc1C#Cc1cnc2cccnn12 [M14, 3-(imidazo[1,2-b]pyridazin-3-ylethynyl)-4-methylbenzoic acid] | 2.4% | – (“–” values less than 0.5% are not reported) | – (“–” values less than 0.5% are not reported) | – (“–” values less than 0.5% are not reported) | % of total radioactive dose [7]: 0.3%; % Distribution in matrix ([7]; % of urinary TRA): 5.6% |

| Structure (SMILES) | Matrix (in which the metabolite was found) [2] | % Distribution in plasma ([3]; 0–24 h pooled plasma) | % Distribution in plasma ([3]; 5 h pooled plasma) | % Distribution in plasma ([3]; 10 h pooled plasma) | % Distribution in plasma ([3]; 12 h pooled plasma) | plasma level at 144 h postdose [4] | time postdose at which C max / maximal levels in plasma were observed [4] [h] | concentration at 144 h [4] [nM] | AUC(0-inf) [4] [µM·h] | AUC(0-t) [4] [µM·h] | Cmax [4] [nM] | Tmax [4] [h] | half-life [4] [h] | activity against BCR–ABL, cellular activity screen (BCR–ABL [5]) | activity against BCR–ABL, kinase screen (BCR–ABL [6]) | % Distribution in plasma ([3]; 36 h pooled plasma) | % Distribution in plasma ([3]; 48 h pooled plasma) | % Distribution in plasma ([3]; 72 h pooled plasma) | % Distribution in plasma ([3]; 96 h pooled plasma) | other results |
| --- | --- | --- | --- | --- | --- | --- | --- | --- | --- | --- | --- | --- | --- | --- | --- | --- | --- | --- | --- | --- |
| Cc1ccc(C(=O)Nc2ccc(C(=O)O)c(C(F)(F)F)c2)cc1C#Cc1cnc2cccnn12 [M23, 4-(3-(imidazo[1,2-b]pyridazin-3-ylethynyl)-4-methylbenzamido)-2-(trifluoromethyl)benzoic acid] | P, U, F | 7% | – (“–” values less than 0.5% are not reported) | 3.4% | 2.4% | – | 36 | < 3 | – | – | – | – | – | inactive | inactive | 3.9% | 5.4% | 10.7% | 6.0% | – |
